Among the test systems are SF-295; DU-145; OVCAR-5; HT-29; SNB-19; SF-268; RPMI-8226; ACHN; BT-549; MDA-N; 786-0; U-251; RXF 393; MDA-MB-231; A549; UACC-62; CAKI-1; Malme-3M; OVCAR-8; OVCAR-3.
Holding throughout (assay): NCI anticancer screen, dose series, 48 h

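Briefly, cells in 96-well plates were exposed to five compound concentrations for 48 h, and endpoints were estimated by linear interpolation. GI50 marks 50% less growth.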 Calls of active or inactive are those of the source. Cut-off read from the data, not from the text of the source: active = GI50 up to about 1.1 µM and inactive = higher.

Regarding `CN1CCc2c(sc3ncn(Nc4ccc(F)cc4)c(=N)c23)C1`, the GI50 in the assay with SF-295, in the assay on DU-145, in the assay with OVCAR-5, in the assay with HT-29, in the assay with SNB-19 and in the assay on SF-268 was > 100 µM (inactive) in each case. In addition, the GI50 with RPMI-8226, in the assay on ACHN, in the assay on BT-549, with MDA-N, with 786-0 and with U-251 was > 100 µM (inactive) in each case. Further, the GI50 with RXF 393, in the assay with MDA-MB-231, in the assay on A549, with UACC-62, in the assay with CAKI-1 and in the assay on Malme-3M was > 100 µM (inactive) in each case. The GI50 with OVCAR-8 and in the assay with OVCAR-3 was > 100 µM (inactive) in each case.

Consider `OCCCNCC(O)c1ccc(OCc2ccccc2)c(OCc2ccccc2)c1` (stereo not drawn), for which the GI50 with SF-295 is 10.4 µM (inactive); with DU-145, 16.9 µM (inactive); in the assay on OVCAR-5 it was 15.7 µM (inactive); with HT-29 it was 8.24 µM (inactive); with SNB-19 it was 17.3 µM (inactive); with SF-268, 15.3 µM (inactive). In addition, the GI50 with RPMI-8226 is 8.47 µM (inactive); in the assay with ACHN it was 10.4 µM (inactive); with BT-549, 15.8 µM (inactive); in the assay with MDA-N it was 9.64 µM (inactive); with 786-0, 7.48 µM (inactive); in the assay with U-251, 9.75 µM (inactive). For the same compound, the GI50 with RXF 393 is 23.4 µM (inactive); in the assay on MDA-MB-231, 14 µM (inactive); with A549, 11.6 µM (inactive); in the assay with UACC-62, 20 µM (inactive); with CAKI-1, 17.6 µM (inactive); in the assay on Malme-3M it was 15.8 µM (inactive). The GI50 in the assay with OVCAR-8 is 11.4 µM (inactive); in the assay with OVCAR-3, 15.9 µM (inactive).

For the compound `COc1cc(O)c2c(O)c3c(c4c2c1[C@]1(C4)C(C)=CCCC1(C)C)[C@H](O)[C@@]1(O)CC(O)=C(C(N)=O)C(=O)[C@@]1(O)C3=O`, the GI50 is 0.322 µM (active) with SF-295; 0.359 µM (active) in the assay on DU-145; 0.324 µM (active) in the assay on OVCAR-5; 0.0615 µM (active) with HT-29; 0.42 µM (active) in the assay with SNB-19; 0.269 µM (active) in the assay on SF-268. Also, the GI50 in the assay with RPMI-8226 was 0.0612 µM (active); in the assay with ACHN, 0.209 µM (active); with BT-549, 0.318 µM (active); in the assay on MDA-N, 0.333 µM (active); in the assay on 786-0 it was 0.247 µM (active); in the assay with U-251, 0.0453 µM (active). In addition, the GI50 with RXF 393 is 0.459 µM (active); in the assay on MDA-MB-231, 0.259 µM (active); in the assay with A549, 0.0499 µM (active); in the assay on UACC-62 it was 0.573 µM (active); in the assay on CAKI-1, 0.294 µM (active); in the assay on Malme-3M it was 0.158 µM (active). Also, the GI50 was 0.113 µM (active) with OVCAR-8 and 0.228 µM (active) in the assay with OVCAR-3.

Turning to `COC(=O)[C@@H]1CO[C@H](C(C)(C)C)N1C(=O)N1C=CC(=O)C[C@H]1C`, the GI50 with SF-295, in the assay with DU-145, in the assay with OVCAR-5, in the assay on HT-29, with SF-268 and in the assay with RPMI-8226 was > 100 µM (inactive) in each case. The GI50 in the assay with ACHN, in the assay with BT-549, in the assay with MDA-N, in the assay with 786-0, with U-251 and in the assay on RXF 393 was > 100 µM (inactive) throughout. In addition, the GI50 with MDA-MB-231, in the assay on A549, with UACC-62, in the assay with CAKI-1, in the assay on Malme-3M and in the assay with OVCAR-8 was > 100 µM (inactive) each time. Moreover, the GI50 with OVCAR-3 was > 100 µM (inactive).

With `CC1(C)C2CC3C(C)(C2)C31c1cc(Cl)ccc1N` (stereo not drawn), the GI50 in the assay on SF-295 is 15.2 µM (inactive); with DU-145, 14 µM (inactive); in the assay on OVCAR-5 it was 16 µM (inactive); with HT-29 it was 14.5 µM (inactive); in the assay on SNB-19 it was 18.9 µM (inactive); in the assay with SF-268, 13.8 µM (inactive). The GI50 in the assay with RPMI-8226 is 13 µM (inactive); in the assay on ACHN it was 15.6 µM (inactive); in the assay on BT-549, 15.5 µM (inactive); with MDA-N it was 12.2 µM (inactive); in the assay with 786-0, 15.3 µM (inactive); in the assay on U-251, 15.2 µM (inactive). For the same compound, the GI50 was 10.3 µM (inactive) in the assay on RXF 393; 16.2 µM (inactive) in the assay on MDA-MB-231; 11.9 µM (inactive) in the assay with A549; 15.2 µM (inactive) in the assay with UACC-62; 15.6 µM (inactive) with CAKI-1; 7.53 µM (inactive) with Malme-3M. Besides, the GI50 is 15.1 µM (inactive) with OVCAR-8 and 16.7 µM (inactive) in the assay on OVCAR-3.

Regarding `CCCCCCCCCCc1c2nc(c(CCCCCCCCCC)c3ccc([nH]3)c(CCCCCCCCCC)c3nc(c(CCCCCCCCCC)c4ccc1[nH]4)C=C3)C=C2`, the GI50 in the assay with SF-295, in the assay on DU-145, with OVCAR-5, with HT-29, with SNB-19 and in the assay with SF-268 was > 100 µM (inactive) in each case. Also, the GI50 in the assay on RPMI-8226, in the assay on ACHN, with BT-549, in the assay on MDA-N, in the assay on 786-0 and with U-251 was > 100 µM (inactive) each time. Further, the GI50 in the assay on RXF 393, in the assay on MDA-MB-231, in the assay with A549, in the assay on UACC-62, with CAKI-1 and in the assay on Malme-3M was > 100 µM (inactive) in each case. Besides, the GI50 in the assay on OVCAR-8 and in the assay with OVCAR-3 was > 100 µM (inactive) throughout.

Turning to `Oc1cc(N2CCCC2)ccc1/C=N/N1C(=S)N(c2ccccc2)C(=N\c2ccccc2)/C1=N/c1ccccc1`, the GI50 in the assay on SF-295 was 94.4 µM (inactive); in the assay on DU-145, > 100 µM (inactive); with OVCAR-5, > 100 µM (inactive); with HT-29, > 100 µM (inactive); with SNB-19, 51.4 µM (inactive); in the assay with SF-268 it was > 100 µM (inactive). Besides, the GI50 in the assay on RPMI-8226 was > 100 µM (inactive); in the assay on ACHN it was > 100 µM (inactive); in the assay on BT-549, > 100 µM (inactive); with MDA-N it was > 100 µM (inactive); in the assay with 786-0, > 100 µM (inactive); in the assay with U-251, 31.2 µM (inactive). Moreover, the GI50 in the assay on RXF 393 is 14.2 µM (inactive); with MDA-MB-231 it was 48 µM (inactive); in the assay on A549 it was > 100 µM (inactive); in the assay on UACC-62, 97.7 µM (inactive); with CAKI-1 it was > 100 µM (inactive); in the assay on Malme-3M, > 100 µM (inactive). Besides, the GI50 in the assay on OVCAR-8 and in the assay on OVCAR-3 was > 100 µM (inactive) throughout.

Consider `O=c1[nH]nc(Cc2ccccc2)n1/N=C\CC/C=N\n1c(Cc2ccccc2)n[nH]c1=O`, for which the GI50 in the assay on SF-295 is 39.1 µM (inactive); in the assay on DU-145, 43.5 µM (inactive); in the assay on OVCAR-5, > 100 µM (inactive); with HT-29, 23.4 µM (inactive); with SNB-19, 42.9 µM (inactive); in the assay with SF-268, 23.8 µM (inactive). For the same compound, the GI50 with RPMI-8226 is 21.5 µM (inactive); in the assay with ACHN, 49.9 µM (inactive); in the assay on BT-549, 25.8 µM (inactive); with MDA-N it was 44.7 µM (inactive); with 786-0, 29.5 µM (inactive); with U-251, 34 µM (inactive). The GI50 in the assay on RXF 393 was 24.3 µM (inactive); in the assay with MDA-MB-231 it was 61.9 µM (inactive); with A549, > 100 µM (inactive); with UACC-62, 16.8 µM (inactive); in the assay on CAKI-1 it was > 100 µM (inactive); in the assay with Malme-3M it was 24.7 µM (inactive). Further, the GI50 in the assay on OVCAR-8 is 23.1 µM (inactive); in the assay with OVCAR-3, 61.7 µM (inactive).

With `Cc1cc(-c2nc3cc(F)ccc3s2)ccc1N`, the GI50 with SF-295 is 14.8 µM (inactive); in the assay on DU-145, 56 µM (inactive); in the assay on OVCAR-5, 0.794 µM (active); in the assay with HT-29, 29 µM (inactive); in the assay with SNB-19, 35.8 µM (inactive); in the assay with SF-268 it was 20.3 µM (inactive). For the same compound, the GI50 in the assay with RPMI-8226 was > 31.3 µM (inactive); in the assay on ACHN it was 22.4 µM (inactive); in the assay with BT-549, > 48 µM (inactive); in the assay with MDA-N, > 46.1 µM (inactive); in the assay on 786-0, 22.2 µM (inactive); in the assay on U-251, 24.2 µM (inactive). In addition, the GI50 in the assay with RXF 393 was 17.2 µM (inactive); with MDA-MB-231, 8.11 µM (inactive); in the assay with A549 it was 6.17 µM (inactive); in the assay with UACC-62 it was 39.7 µM (inactive); in the assay on CAKI-1 it was 23.6 µM (inactive); in the assay on Malme-3M, 40.8 µM (inactive). Also, the GI50 is 36.3 µM (inactive) with OVCAR-8 and 28.7 µM (inactive) in the assay on OVCAR-3.

For `CC(=O)Oc1ccc(/C=C/C(=O)O[C@@H](C)[C@H](C)OC(=O)/C=C/c2ccc(OC(C)=O)c(OC(C)=O)c2)cc1OC(C)=O`, the GI50 in the assay with SF-295 is 11.2 µM (inactive); in the assay with DU-145, 21.9 µM (inactive); in the assay on OVCAR-5, 21.2 µM (inactive); in the assay with SNB-19, 18.9 µM (inactive); in the assay with SF-268 it was 18.4 µM (inactive); with RPMI-8226 it was 4.75 µM (inactive). For the same compound, the GI50 in the assay with ACHN was 11.4 µM (inactive); in the assay on BT-549 it was 10 µM (inactive); in the assay with MDA-N, 11.1 µM (inactive); with 786-0, 12.1 µM (inactive); in the assay on U-251, 17.1 µM (inactive); with RXF 393, 13.6 µM (inactive). Besides, the GI50 with MDA-MB-231 is 39.9 µM (inactive); in the assay on A549, 13.8 µM (inactive); in the assay on UACC-62 it was 8.41 µM (inactive); in the assay on CAKI-1, 27.3 µM (inactive); in the assay on Malme-3M, 22.9 µM (inactive); with OVCAR-8, 11.5 µM (inactive). Besides, the GI50 in the assay on OVCAR-3 is 5.15 µM (inactive).

The values above are taken from ChEMBL document CHEMBL1201862, “PubChem BioAssay data set” (2004).
